From patent publication US8580815B2, “Derivatives of azaindoles as inhibitors of protein kinases ABL and SRC” (Oribase Pharma, priority 2009, dated 2013)
Several values for one entry are separate records, joined by “and”; a condition that tells them apart may be missing. Equal values may be shown once.

Molecular target: Abl T315I (Homo sapiens (Human), UniProt P00519, T315I)
Experiment: Reaction Biology Corp. kinase assay, mutated Abl T315I
Format: biochemical
Details: 10 μM; Reaction Biology Corp.; read-out: % inhibition of kinase activity, Abl T315I (category)
Procedure: (§1) 4 compounds were tested for their capacity to inhibit various mutated kinases AbI (American company, Reaction Biology Corp.).

| inhibition at 10 µM | Structure (SMILES) |
| --- | --- |
| < 10% | COC(=O)c1cc2cc(NCc3ccccc3Br)cnc2[nH]1 [ND0057] |
| < 10% | COC(=O)c1cc2cc(Nc3ccncc3)cnc2[nH]1 [ND0058] |
| < 10% | COC(=O)c1cc2cc(NC(=O)c3c(Cl)cccc3Cl)cnc2[nH]1 [ND0072, Methyl 5-(2,6-dichlorobenzamido)-1H-pyrrolo[2,3-b]pyridine-2-carboxylate] |
| < 10% | COC(=O)c1cc2cc(NC(=O)c3ccccc3OC)cnc2[nH]1 [ND0073, Methyl 5-(2-methoxybenzamido)-1H-pyrrolo[2,3-b]pyridine-2-carboxylate] |
| < 10% | COC(=O)c1cc2cc(NC(=O)c3c(C)cccc3Cl)cnc2[nH]1 [ND0074, Methyl 5-(2-chloro-6-methylbenzamido)-1H-pyrrolo[2,3-b]pyridine-2-carboxylate] |
| 10 to 50% | COC(=O)c1cc2cc(NC(=O)c3cccc(Br)c3)cnc2[nH]1 [ND0075, Methyl 5-(3-bromobenzamido)-1H-pyrrolo[2,3-b]pyridine-2-carboxylate] |
| < 10% | COC(=O)c1cc2cc(NC(=O)c3ccccc3C(F)(F)F)cnc2[nH]1 [ND0077, Methyl 5-(2-(trifluoromethyl)benzamido)-1H-pyrrolo[2,3-b]pyridine-2-carboxylate] |
| < 10% | COC(=O)c1cc2cc(NC(=O)c3ccccc3OC(F)(F)F)cnc2[nH]1 [ND0078, Methyl 5-(2-(trifluoromethoxy)benzamido)-1H-pyrrolo[2,3-b]pyridine-2-carboxylate] |
| < 10% | COC(=O)c1cc2cc(NC(=O)c3cccs3)cnc2[nH]1 [ND0079, Methyl 5-(thiophene-2-carboxamido)-1H-pyrrolo[2,3-b]pyridine-2-carboxylate] |
| < 10% | COC(=O)c1cc2cc(NC(=O)c3ccc4[nH]ccc4c3)cnc2[nH]1 [ND0082] |
| < 10% | COC(=O)c1cc2cc(NC(=O)c3cc(C)n[nH]3)cnc2[nH]1 [ND0085] |
| < 10% | COC(=O)c1cc2cc(NC(=O)c3cccc(S(=O)(=O)NCc4ccco4)c3)cnc2[nH]1 [ND0086] |
| < 10% | COC(=O)c1cc2cc(NCc3ccccc3OC)cnc2[nH]1 [ND0088] |
| < 10% | COC(=O)c1cc2cc(NCc3ccccc3C(F)(F)F)cnc2[nH]1 [ND0091] |
| < 10% | COC(=O)c1cc2cc(NCc3ccccc3OC(F)(F)F)cnc2[nH]1 [ND0092] |
| 10 to 50% | COC(=O)c1cc2cc(NCc3cccs3)cnc2[nH]1 [ND0093] |
| 10 to 50% | COC(=O)c1cc2cc(NCc3nccs3)cnc2[nH]1 [ND0094] |

Molecular target: Src kinase (Homo sapiens (Human), UniProt P12931)
Experiment: Reaction Biology Corp. kinase assay, Src
Details: IC50 on kinase Src (category), compounds tested by Reaction Biology Corp., ATP at 10 μM

Chain of Src kinase (P12931 whole entry, looked up): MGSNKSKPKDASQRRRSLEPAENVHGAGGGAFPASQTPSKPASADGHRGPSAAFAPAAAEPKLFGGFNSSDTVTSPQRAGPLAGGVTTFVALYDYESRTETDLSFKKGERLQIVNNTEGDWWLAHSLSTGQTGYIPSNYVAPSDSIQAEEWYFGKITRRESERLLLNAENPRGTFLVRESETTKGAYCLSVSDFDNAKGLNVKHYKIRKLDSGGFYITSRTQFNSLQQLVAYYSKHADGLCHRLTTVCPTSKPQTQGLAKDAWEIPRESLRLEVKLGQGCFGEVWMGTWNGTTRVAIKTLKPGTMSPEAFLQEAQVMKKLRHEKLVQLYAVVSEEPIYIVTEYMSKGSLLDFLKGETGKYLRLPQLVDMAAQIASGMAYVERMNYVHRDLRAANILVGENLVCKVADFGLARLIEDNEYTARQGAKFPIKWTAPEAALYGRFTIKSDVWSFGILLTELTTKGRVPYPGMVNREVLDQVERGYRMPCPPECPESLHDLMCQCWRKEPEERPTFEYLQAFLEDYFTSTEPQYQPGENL

| IC50 | Structure (SMILES) |
| --- | --- |
| 100 to 10000 nM | COC(=O)c1cc2cc(NCc3ccccc3Br)cnc2[nH]1 [ND0057] |
| 1 to 100 nM | COC(=O)c1cc2cc(NC(=O)c3c(Cl)cccc3Cl)cnc2[nH]1 [ND0072, Methyl 5-(2,6-dichlorobenzamido)-1H-pyrrolo[2,3-b]pyridine-2-carboxylate] |
| 1 to 100 nM | COC(=O)c1cc2cc(NC(=O)c3c(C)cccc3Cl)cnc2[nH]1 [ND0074, Methyl 5-(2-chloro-6-methylbenzamido)-1H-pyrrolo[2,3-b]pyridine-2-carboxylate] |
| 1 to 100 nM and 100 to 10000 nM | COC(=O)c1cc2cc(NC(=O)c3ccccc3C(F)(F)F)cnc2[nH]1 [ND0077, Methyl 5-(2-(trifluoromethyl)benzamido)-1H-pyrrolo[2,3-b]pyridine-2-carboxylate] |
| 100 to 10000 nM | COC(=O)c1cc2cc(NCc3ccccc3OC)cnc2[nH]1 [ND0088] |
| 100 to 10000 nM | COC(=O)c1cc2cc(NCc3ccccc3C(F)(F)F)cnc2[nH]1 [ND0091] |
| 100 to 10000 nM | COC(=O)c1cc2cc(NCc3cccs3)cnc2[nH]1 [ND0093] |
| 100 to 10000 nM | COC(=O)c1cc2cc(NCc3nccs3)cnc2[nH]1 [ND0094] |

Same assay, conditions: read-out: % inhibition of kinase activity, Src (category), 10 μM; compounds tested by Reaction Biology Corp.

| inhibition at 10 µM | Structure (SMILES) |
| --- | --- |
| > 50% | COC(=O)c1cc2cc(NCc3ccccc3Br)cnc2[nH]1 [ND0057] |
| 10 to 50% | COC(=O)c1cc2cc(Nc3ccncc3)cnc2[nH]1 [ND0058] |
| > 50% | COC(=O)c1cc2cc(NC(=O)c3c(Cl)cccc3Cl)cnc2[nH]1 [ND0072, Methyl 5-(2,6-dichlorobenzamido)-1H-pyrrolo[2,3-b]pyridine-2-carboxylate] |
| 10 to 50% | COC(=O)c1cc2cc(NC(=O)c3ccccc3OC)cnc2[nH]1 [ND0073, Methyl 5-(2-methoxybenzamido)-1H-pyrrolo[2,3-b]pyridine-2-carboxylate] |
| > 50% | COC(=O)c1cc2cc(NC(=O)c3c(C)cccc3Cl)cnc2[nH]1 [ND0074, Methyl 5-(2-chloro-6-methylbenzamido)-1H-pyrrolo[2,3-b]pyridine-2-carboxylate] |
| 10 to 50% | COC(=O)c1cc2cc(NC(=O)c3cccc(Br)c3)cnc2[nH]1 [ND0075, Methyl 5-(3-bromobenzamido)-1H-pyrrolo[2,3-b]pyridine-2-carboxylate] |
| > 50% | COC(=O)c1cc2cc(NC(=O)c3ccccc3C(F)(F)F)cnc2[nH]1 [ND0077, Methyl 5-(2-(trifluoromethyl)benzamido)-1H-pyrrolo[2,3-b]pyridine-2-carboxylate] |
| 10 to 50% | COC(=O)c1cc2cc(NC(=O)c3ccccc3OC(F)(F)F)cnc2[nH]1 [ND0078, Methyl 5-(2-(trifluoromethoxy)benzamido)-1H-pyrrolo[2,3-b]pyridine-2-carboxylate] |
| 10 to 50% | COC(=O)c1cc2cc(NC(=O)c3cccs3)cnc2[nH]1 [ND0079, Methyl 5-(thiophene-2-carboxamido)-1H-pyrrolo[2,3-b]pyridine-2-carboxylate] |
| < 10% | COC(=O)c1cc2cc(NC(=O)c3ccc4[nH]ccc4c3)cnc2[nH]1 [ND0082] |
| 10 to 50% | COC(=O)c1cc2cc(NC(=O)c3cc(C)n[nH]3)cnc2[nH]1 [ND0085] |
| < 10% | COC(=O)c1cc2cc(NC(=O)c3cccc(S(=O)(=O)NCc4ccco4)c3)cnc2[nH]1 [ND0086] |
| > 50% | COC(=O)c1cc2cc(NCc3ccccc3OC)cnc2[nH]1 [ND0088] |
| > 50% | COC(=O)c1cc2cc(NCc3ccccc3C(F)(F)F)cnc2[nH]1 [ND0091] |
| < 10% | COC(=O)c1cc2cc(NCc3ccccc3OC(F)(F)F)cnc2[nH]1 [ND0092] |
| > 50% | COC(=O)c1cc2cc(NCc3cccs3)cnc2[nH]1 [ND0093] |
| > 50% | COC(=O)c1cc2cc(NCc3nccs3)cnc2[nH]1 [ND0094] |

System: K562 cells expressing kinase Bcr-AbI
Experiment: Inhibition of cellular proliferation (MTT), K562 cells
Format: cell-based, human
Details: Homo sapiens, K562, 24 h, 24 h incubation; read-out: IC50 at 24 h on K562 (category)
Procedure: Cellular tests were carried out at the Montpellier Cancer Research Centre. The inhibition of proliferation by our compounds was analysed on 2 cell lines (U937 and K562) by calculating the IC50, testing 6 concentrations in triplicate for each of the compounds and for each line.
Cells in exponential phase were seeded in 96-well plates at a concentration of 10^4 cells/100 μL/well. The final concentrations of compound in the well in contact with the cells were 0.1; 0.3; 0.9; 3.3; 10; 30; 90 μM. […]

| IC50 | Structure (SMILES) |
| --- | --- |
| > 10000 nM | COC(=O)c1cc2cc(NC(=O)c3c(Cl)cccc3Cl)cnc2[nH]1 [ND0072, Methyl 5-(2,6-dichlorobenzamido)-1H-pyrrolo[2,3-b]pyridine-2-carboxylate] |
| > 10000 nM | COC(=O)c1cc2cc(NC(=O)c3c(C)cccc3Cl)cnc2[nH]1 [ND0074, Methyl 5-(2-chloro-6-methylbenzamido)-1H-pyrrolo[2,3-b]pyridine-2-carboxylate] |

Same assay, conditions: Homo sapiens, K562, 72 h, read-out: IC50 at 72 h on K562 (category), 72 h incubation

| IC50 | Structure (SMILES) |
| --- | --- |
| 10 to 1000 nM | COC(=O)c1cc2cc(NC(=O)c3c(Cl)cccc3Cl)cnc2[nH]1 [ND0072, Methyl 5-(2,6-dichlorobenzamido)-1H-pyrrolo[2,3-b]pyridine-2-carboxylate] |
| 10 to 1000 nM | COC(=O)c1cc2cc(NC(=O)c3c(C)cccc3Cl)cnc2[nH]1 [ND0074, Methyl 5-(2-chloro-6-methylbenzamido)-1H-pyrrolo[2,3-b]pyridine-2-carboxylate] |

Same assay, conditions: incubation time not stated (24 h and/or 72 h); read-out: IC50 for the K562 Bcr-AbI kinase (category)

| IC50 | Structure (SMILES) |
| --- | --- |
| > 10000 nM | COC(=O)c1cc2cc(NC(=O)c3c(C)cccc3Cl)cnc2[nH]1 [ND0074, Methyl 5-(2-chloro-6-methylbenzamido)-1H-pyrrolo[2,3-b]pyridine-2-carboxylate] |

Molecular target: Abl WT (Homo sapiens (Human), UniProt P00519)
Experiment: Reaction Biology Corp. kinase assay, Abl WT
Format: biochemical
Details: 10 μM; compounds tested by Reaction Biology Corp.; read-out: % inhibition of kinase activity, Abl WT (category)
Procedure: as §1

| inhibition at 10 µM | Structure (SMILES) |
| --- | --- |
| > 50% | COC(=O)c1cc2cc(NCc3ccccc3Br)cnc2[nH]1 [ND0057] |
| 10 to 50% | COC(=O)c1cc2cc(Nc3ccncc3)cnc2[nH]1 [ND0058] |
| > 50% | COC(=O)c1cc2cc(NC(=O)c3c(Cl)cccc3Cl)cnc2[nH]1 [ND0072, Methyl 5-(2,6-dichlorobenzamido)-1H-pyrrolo[2,3-b]pyridine-2-carboxylate] |
| 10 to 50% | COC(=O)c1cc2cc(NC(=O)c3ccccc3OC)cnc2[nH]1 [ND0073, Methyl 5-(2-methoxybenzamido)-1H-pyrrolo[2,3-b]pyridine-2-carboxylate] |
| 10 to 50% | COC(=O)c1cc2cc(NC(=O)c3cccc(Br)c3)cnc2[nH]1 [ND0075, Methyl 5-(3-bromobenzamido)-1H-pyrrolo[2,3-b]pyridine-2-carboxylate] |
| > 50% | COC(=O)c1cc2cc(NC(=O)c3ccccc3C(F)(F)F)cnc2[nH]1 [ND0077, Methyl 5-(2-(trifluoromethyl)benzamido)-1H-pyrrolo[2,3-b]pyridine-2-carboxylate] |
| 10 to 50% | COC(=O)c1cc2cc(NC(=O)c3ccccc3OC(F)(F)F)cnc2[nH]1 [ND0078, Methyl 5-(2-(trifluoromethoxy)benzamido)-1H-pyrrolo[2,3-b]pyridine-2-carboxylate] |
| 10 to 50% | COC(=O)c1cc2cc(NC(=O)c3cccs3)cnc2[nH]1 [ND0079, Methyl 5-(thiophene-2-carboxamido)-1H-pyrrolo[2,3-b]pyridine-2-carboxylate] |
| > 50% | COC(=O)c1cc2cc(NC(=O)c3ccc4[nH]ccc4c3)cnc2[nH]1 [ND0082] |
| > 50% | COC(=O)c1cc2cc(NC(=O)c3cc(C)n[nH]3)cnc2[nH]1 [ND0085] |
| 10 to 50% | COC(=O)c1cc2cc(NC(=O)c3cccc(S(=O)(=O)NCc4ccco4)c3)cnc2[nH]1 [ND0086] |
| > 50% | COC(=O)c1cc2cc(NCc3ccccc3OC)cnc2[nH]1 [ND0088] |
| > 50% | COC(=O)c1cc2cc(NCc3ccccc3C(F)(F)F)cnc2[nH]1 [ND0091] |
| 10 to 50% | COC(=O)c1cc2cc(NCc3ccccc3OC(F)(F)F)cnc2[nH]1 [ND0092] |
| > 50% | COC(=O)c1cc2cc(NCc3cccs3)cnc2[nH]1 [ND0093] |
| > 50% | COC(=O)c1cc2cc(NCc3nccs3)cnc2[nH]1 [ND0094] |

Same assay, conditions: compounds tested by Reaction Biology Corp., ATP at 10 μM; read-out: IC50 on kinase Abl WT (category)

| IC50 | Structure (SMILES) |
| --- | --- |
| 100 to 10000 nM | COC(=O)c1cc2cc(NCc3ccccc3Br)cnc2[nH]1 [ND0057] |
| 1 to 100 nM | COC(=O)c1cc2cc(NC(=O)c3c(Cl)cccc3Cl)cnc2[nH]1 [ND0072, Methyl 5-(2,6-dichlorobenzamido)-1H-pyrrolo[2,3-b]pyridine-2-carboxylate] |
| 1 to 100 nM | COC(=O)c1cc2cc(NC(=O)c3c(C)cccc3Cl)cnc2[nH]1 [ND0074, Methyl 5-(2-chloro-6-methylbenzamido)-1H-pyrrolo[2,3-b]pyridine-2-carboxylate] |
| 1 to 100 nM | COC(=O)c1cc2cc(NC(=O)c3ccccc3C(F)(F)F)cnc2[nH]1 [ND0077, Methyl 5-(2-(trifluoromethyl)benzamido)-1H-pyrrolo[2,3-b]pyridine-2-carboxylate] |
| 100 to 10000 nM | COC(=O)c1cc2cc(NC(=O)c3ccc4[nH]ccc4c3)cnc2[nH]1 [ND0082] |
| 100 to 10000 nM | COC(=O)c1cc2cc(NC(=O)c3cc(C)n[nH]3)cnc2[nH]1 [ND0085] |
| 100 to 10000 nM | COC(=O)c1cc2cc(NCc3ccccc3OC)cnc2[nH]1 [ND0088] |
| 100 to 10000 nM | COC(=O)c1cc2cc(NCc3ccccc3C(F)(F)F)cnc2[nH]1 [ND0091] |
| 100 to 10000 nM | COC(=O)c1cc2cc(NCc3cccs3)cnc2[nH]1 [ND0093] |
| 100 to 10000 nM | COC(=O)c1cc2cc(NCc3nccs3)cnc2[nH]1 [ND0094] |
